Read-outs that look alike come from different tables or passages of the source.
Key:
α4β7 integrin = α4β7 integrin (Homo sapiens (Human), UniProt P13612+P26010); assay: Integrin Adhesion Assay: Protocol 4 (MAdCAM-coated plate, RPMI-8866 cells with stable LOF mutation of the ITGB1 gene); format: cell-based
Procedure, shortened: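 RPMI-8866 cells with CRISPR/Cas9 knockout of ITGB1 (2×10^6/mL) were added to MAdCAM-coated wells with compound (1% DMSO) in HEPES/NaCl buffer with 1 mM MnCl2, 0.1 mM CaCl2 and 1% BSA, then incubated 1 h at 37 °C. After four washes, adherent cells were quantified by CellTiter-Glo luminescence. Percent inhibition versus DMSO and control compound was fitted to 4-parameter curves.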

α4β1 integrin = α4β1 integrin (Homo sapiens (Human), UniProt P05556+P13612); assay: Integrin Adhesion Assay: Protocol 5 (VCAM-coated plate, RPMI-8866 cells with stable LOF mutation of the ITGB7 gene); format: cell-based
Sequence of α4β1 integrin (P13612 34-1032): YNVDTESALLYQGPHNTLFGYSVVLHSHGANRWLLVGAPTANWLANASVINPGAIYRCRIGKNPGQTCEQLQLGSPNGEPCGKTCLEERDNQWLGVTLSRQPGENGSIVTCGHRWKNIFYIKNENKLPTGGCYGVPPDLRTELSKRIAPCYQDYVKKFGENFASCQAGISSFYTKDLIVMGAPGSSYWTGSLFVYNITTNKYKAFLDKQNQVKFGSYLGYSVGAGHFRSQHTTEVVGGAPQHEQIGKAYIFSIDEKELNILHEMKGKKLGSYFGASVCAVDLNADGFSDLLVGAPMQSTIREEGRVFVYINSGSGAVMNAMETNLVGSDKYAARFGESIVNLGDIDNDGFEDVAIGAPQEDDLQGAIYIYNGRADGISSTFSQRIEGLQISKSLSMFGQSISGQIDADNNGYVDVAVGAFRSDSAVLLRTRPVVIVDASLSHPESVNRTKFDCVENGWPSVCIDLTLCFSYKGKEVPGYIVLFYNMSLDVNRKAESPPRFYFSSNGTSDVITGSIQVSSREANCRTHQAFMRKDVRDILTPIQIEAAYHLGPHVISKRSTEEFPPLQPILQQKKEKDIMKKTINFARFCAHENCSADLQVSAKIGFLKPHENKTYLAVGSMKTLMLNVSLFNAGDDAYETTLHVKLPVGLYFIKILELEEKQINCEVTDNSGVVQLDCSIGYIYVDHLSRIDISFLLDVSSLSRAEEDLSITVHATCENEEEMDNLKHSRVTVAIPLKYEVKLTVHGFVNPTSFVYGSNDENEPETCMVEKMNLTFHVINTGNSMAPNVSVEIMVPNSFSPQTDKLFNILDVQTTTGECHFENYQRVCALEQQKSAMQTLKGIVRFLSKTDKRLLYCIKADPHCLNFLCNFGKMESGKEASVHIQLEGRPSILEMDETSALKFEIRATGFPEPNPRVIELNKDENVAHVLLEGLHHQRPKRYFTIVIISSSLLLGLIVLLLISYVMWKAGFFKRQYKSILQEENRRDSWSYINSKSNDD
Sequence of α4β1 integrin (P05556 21-798): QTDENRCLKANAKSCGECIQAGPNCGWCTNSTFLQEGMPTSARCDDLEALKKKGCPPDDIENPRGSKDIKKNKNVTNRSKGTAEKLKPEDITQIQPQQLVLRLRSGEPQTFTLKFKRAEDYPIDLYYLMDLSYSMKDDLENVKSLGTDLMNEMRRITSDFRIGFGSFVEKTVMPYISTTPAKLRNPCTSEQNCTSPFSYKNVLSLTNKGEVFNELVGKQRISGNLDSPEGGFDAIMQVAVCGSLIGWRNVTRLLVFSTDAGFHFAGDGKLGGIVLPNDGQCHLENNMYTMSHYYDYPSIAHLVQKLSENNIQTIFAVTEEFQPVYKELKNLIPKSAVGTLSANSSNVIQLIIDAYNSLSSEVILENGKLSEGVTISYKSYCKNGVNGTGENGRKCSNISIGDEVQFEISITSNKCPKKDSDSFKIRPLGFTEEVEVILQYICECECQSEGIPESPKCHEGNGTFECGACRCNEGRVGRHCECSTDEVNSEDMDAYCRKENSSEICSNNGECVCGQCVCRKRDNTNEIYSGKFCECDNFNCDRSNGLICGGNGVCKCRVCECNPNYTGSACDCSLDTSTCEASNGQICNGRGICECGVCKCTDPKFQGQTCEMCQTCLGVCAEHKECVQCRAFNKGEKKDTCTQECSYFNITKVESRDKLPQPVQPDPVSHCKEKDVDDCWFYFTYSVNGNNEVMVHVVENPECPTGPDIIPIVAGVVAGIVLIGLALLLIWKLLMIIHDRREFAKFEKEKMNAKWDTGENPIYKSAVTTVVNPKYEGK
Procedure, shortened: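 RPMI-8866 B cells with CRISPR/Cas9 ITGB7 knockout (clonal, verified by flow cytometry) adhered to VCAM-coated wells for 1 h at 37° C in HEPES/NaCl buffer with 1 mM MnCl2, 0.1 mM CaCl2, 1% BSA, 1% DMSO. Bound cells quantified by CellTiter-Glo luminescence after washing; % inhibition versus DMSO and control, 4-parameter fit.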

[1] = Protocol 4, RPMI-8866 cells with LOF mutation of ITGB1, MAdCAM, read-out: Mean IC50 α4β7 KO
[2] = Protocol 5, RPMI-8866 cells with LOF mutation of ITGB7, VCAM, read-out: Mean IC50 α4β1 KO
[3] = RPMI-8866 cells with stable LOF mutation of the ITGB1 gene, read-out: Mean IC50 α4β7 KO^a
[4] = RPMI-8866 cells with stable LOF mutation of the ITGB7 gene, read-out: Mean IC50 α4β1 KO^b

Sequence of α4β7 integrin (P13612 34-1032): as the sequence (P13612 34-1032) above
Sequence of α4β7 integrin (P26010 20-798): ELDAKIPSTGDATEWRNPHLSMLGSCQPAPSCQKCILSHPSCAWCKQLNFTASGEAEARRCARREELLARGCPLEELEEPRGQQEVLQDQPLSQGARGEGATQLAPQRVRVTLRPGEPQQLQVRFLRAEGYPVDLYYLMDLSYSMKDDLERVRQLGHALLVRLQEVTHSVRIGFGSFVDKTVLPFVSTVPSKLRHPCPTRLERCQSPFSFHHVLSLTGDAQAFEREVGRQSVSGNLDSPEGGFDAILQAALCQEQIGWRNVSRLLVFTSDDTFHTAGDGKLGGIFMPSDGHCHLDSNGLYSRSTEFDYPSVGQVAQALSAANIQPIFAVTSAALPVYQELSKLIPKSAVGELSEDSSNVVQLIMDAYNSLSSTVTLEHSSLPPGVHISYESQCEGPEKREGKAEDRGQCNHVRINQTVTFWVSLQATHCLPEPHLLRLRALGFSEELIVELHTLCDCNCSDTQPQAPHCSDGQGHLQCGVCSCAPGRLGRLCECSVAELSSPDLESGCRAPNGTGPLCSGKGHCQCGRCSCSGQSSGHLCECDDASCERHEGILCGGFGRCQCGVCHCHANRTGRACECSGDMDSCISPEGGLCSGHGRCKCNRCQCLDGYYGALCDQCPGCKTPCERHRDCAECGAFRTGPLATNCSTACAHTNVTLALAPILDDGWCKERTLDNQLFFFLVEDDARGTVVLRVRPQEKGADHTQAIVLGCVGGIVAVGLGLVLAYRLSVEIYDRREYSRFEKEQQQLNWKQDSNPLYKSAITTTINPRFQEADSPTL

Row | IC50 (α4β7 integrin; [1]) | IC50 (α4β1 integrin; [2]) | IC50 (α4β7 integrin; [3]) | IC50 (α4β1 integrin; [4]) | Structure (SMILES)
1 | 10 to 100 nM | > 1000 nM |  |  | COc1cccc(CN2CCCC(F)C2)c1-c1cccc2c(C[C@H](NC(=O)C3(C(F)(F)F)CCN(CC(F)(F)F)CC3)C(=O)O)cccc12 (stereo partly shown) [Compound 828]
2 |  |  | 10 to 100 nM | > 1000 nM | COc1ccc(CN2CCCCC2)cc1-c1cccc2c(C[C@H](NC(=O)c3c(C)cccc3F)C(=O)O)cccc12 [Compound 667]
3 | < 10 nM | > 1000 nM |  |  | O=C(O)[C@H](Cc1cccc2c(-c3ncc(CN4CCC[C@@H](F)C4)cc3C3CC3)cccc12)NC(=O)C1(C(F)(F)F)CCN(CC(F)(F)F)CC1 [Compound 949]
4 |  |  | 10 to 100 nM | > 1000 nM | COc1c(CN2CCCCC2)ccc(C(F)(F)F)c1-c1cccc2c(C[C@H](NC(=O)C3(C(F)(F)F)CCN(CC(F)(F)F)CC3)C(=O)O)cccc12 [Compound 662]
5 | 10 to 100 nM | > 1000 nM |  |  | COc1ccc(CN2CCC(F)CC2)c(C(F)(F)F)c1-c1cccc2c(C[C@H](NC(=O)C3(C(F)(F)F)CCN(CC(F)(F)F)CC3)C(=O)O)cccc12 [Compound 821]
6 | < 10 nM | 100 to 1000 nM |  |  | COc1cccc(CCN2CCCC(F)C2)c1-c1cccc2c(C[C@H](NC(=O)C3(C(F)(F)F)CCN(CC(F)(F)F)CC3)C(=O)O)cccc12 (stereo partly shown) [Compound 959]
7 | < 10 nM | 100 to 1000 nM |  |  | CN1CCC(c2cnc(-c3cccc4c(C[C@H](NC(=O)C5(C(F)(F)F)CCN(CC(F)(F)F)CC5)C(=O)O)cccc34)c(C(F)(F)F)c2)CC1 [Compound 757]
8 | < 10 nM | 100 to 1000 nM |  |  | CC1(C)CCN(Cc2cnc(-c3cccc4c(C[C@H](NC(=O)C5(C(F)(F)F)CCN(CC(F)F)CC5)C(=O)O)cccc34)c3ccccc23)CC1 [Compound 861]
9 | < 10 nM | 100 to 1000 nM |  |  | CC[C@H]1CCCN1Cc1cnc(-c2cccc3c(C[C@H](NC(=O)C4(C(F)(F)F)CCN(CC(F)(F)F)CC4)C(=O)O)cccc23)c2ccccc12 [Compound 933]
10 | 10 to 100 nM | > 1000 nM |  |  | COc1ccc(CN2CC(F)C2)c(OC)c1-c1cccc2c(C[C@H](NC(=O)C3(C(F)(F)F)CCN(CC(F)(F)F)CC3)C(=O)O)cccc12 [Compound 781]
11 | < 10 nM | > 1000 nM |  |  | COc1ccc(CN2CCCC(F)C2)c(OC)c1-c1cccc2c(C[C@H](NC(=O)C3(C(F)(F)F)CCN(CC(F)(F)F)CC3)C(=O)O)cccc12 (stereo partly shown) [Compound 788]
12 | 10 to 100 nM | > 1000 nM |  |  | O=C(O)[C@H](Cc1cccc2c(-c3ncc(CCN4CCC(F)(F)CC4)c4ccccc34)cccc12)NC(=O)C1(C(F)(F)F)CCN(CC(F)(F)F)CC1 [Compound 980]
13 | < 10 nM | 10 to 100 nM |  |  | COc1ccc(CCN2CCCCC2)c(C(F)(F)F)c1-c1cccc2c(C[C@H](NC(=O)C3(C(F)(F)F)CCN(CC(F)(F)F)CC3)C(=O)O)cccc12 [Compound 727]
14 | < 10 nM | > 1000 nM |  |  | O=C(O)[C@H](Cc1cccc2c(-c3ccc(CN4CCCCC4)c4ccncc34)cccc12)NC(=O)C1(C(F)(F)F)CCN(CC(F)(F)F)CC1 [Compound 702]
15 | 10 to 100 nM | 100 to 1000 nM |  |  | COc1ccc2cc(CN3CCCCC3)cnc2c1-c1cccc2c(C[C@H](NC(=O)C3(C(F)(F)F)CCN(CC(F)(F)F)CC3)C(=O)O)cccc12 [Compound 733]
16 | < 10 nM | 100 to 1000 nM |  |  | Cc1c(CCN2CCCCC2)ccnc1-c1cccc2c(C[C@H](NC(=O)C3(C(F)(F)F)CCN(CC(F)(F)F)CC3)C(=O)O)cccc12 [Compound 717]
17 |  |  | 10 to 100 nM | > 1000 nM | COc1ccc(CN2CCC(F)(F)CC2)c(OC)c1-c1cccc2c(C[C@H](NC(=O)c3c(C)cc(C45CCOCC4C5)cc3F)C(=O)O)cccc12 (stereo partly shown) [Compound 616]
18 | < 10 nM | 10 to 100 nM |  |  | COc1cc2c(c(C)c1-c1cccc3c(C[C@H](NC(=O)C4(C(F)(F)F)CCN(CC(F)(F)F)CC4)C(=O)O)cccc13)CN(C)CC2 [Compound 724]
19 |  |  | < 10 nM | 100 to 1000 nM | COc1ccc(CN2CCCC2)c(OC)c1-c1cccc2c(C[C@H](NC(=O)c3c(C)cccc3F)C(=O)O)cccc12 [Compound 596]
20 | < 10 nM | > 1000 nM |  |  | O=C(O)[C@H](Cc1cccc2c(-c3nccc4ccc(CCCN5CCCCC5)cc34)cccc12)NC(=O)C1(C(F)(F)F)CCN(CC(F)(F)F)CC1 [Compound 725]
21 | 10 to 100 nM | > 1000 nM |  |  | COc1c(-c2cccc3c(C[C@H](NC(=O)C4(C(F)(F)F)CCN(CC(F)(F)F)CC4)C(=O)O)cccc23)c(=O)n(C)c2ccccc12 [Compound 739]
22 |  |  | < 10 nM | 100 to 1000 nM | Cn1c(C(F)(F)F)cc(C(F)(F)F)c(-c2cccc3c(C[C@H](NC(=O)C4(C(F)(F)F)CCN(C5COC5)CC4)C(=O)O)cccc23)c1=O [Compound 499]

Row | IC50 (α4β7 integrin; [1]) | IC50 (α4β1 integrin; [2]) | IC50 (α4β7 integrin; [3]) | IC50 (α4β1 integrin; [4]) | Structure (SMILES)
23 | < 10 nM | > 1000 nM |  |  | Cc1cc(CN2CCC(C)(C)CC2)cnc1-c1cccc2c(C[C@H](NC(=O)C3(C(F)(F)F)CCN(C4COC4)CC3)C(=O)O)cccc12 [Compound 945]
24 | 10 to 100 nM | > 1000 nM |  |  | COc1cccc(CN2CCC(F)CC2)c1-c1cccc2c(C[C@H](NC(=O)c3c(C)cccc3F)C(=O)O)cccc12 [Compound 1024]
25 | 10 to 100 nM | > 1000 nM |  |  | O=C(O)[C@H](Cc1cccc2c(-c3ncc(CN4CCOC(C(F)(F)F)C4)c4ccccc34)cccc12)NC(=O)C1(C(F)(F)F)CCN(CC(F)F)CC1 (stereo partly shown) [Compound 858]
26 | < 10 nM | > 1000 nM |  |  | O=C(O)[C@H](Cc1cccc2c(-c3ncc(CN4CCC5(CCC5)C4)c4ccccc34)cccc12)NC(=O)C1(C(F)(F)F)CCN(CC(F)(F)F)CC1 [Compound 886]
27 | < 10 nM | > 1000 nM |  |  | O=C(O)[C@H](Cc1cccc2c(-c3ncc(CCN4CCC[C@@H](F)C4)c4ccccc34)cccc12)NC(=O)C1(C(F)(F)F)CCN(CC(F)(F)F)CC1 [Compound 977]
28 |  |  | < 10 nM | > 1000 nM | CC1(C)CCN(Cc2cccc3c(-c4cccc5c(C[C@H](NC(=O)C6(C(F)(F)F)CCN(CC(F)(F)F)CC6)C(=O)O)cccc45)nccc23)CC1 [Compound 561]
29 | < 10 nM | > 1000 nM |  |  | COc1ccc(CN2CCCC(C)(C)C2)c(OC)c1-c1cccc2c(C[C@H](NC(=O)C3(C(F)(F)F)CCN(CC(F)(F)F)CC3)C(=O)O)cccc12 [Compound 791]
30 | < 10 nM | 100 to 1000 nM |  |  | COc1ccc(CCN2CCC3(CCCCC3)CC2)c(OC)c1-c1cccc2c(C[C@H](NC(=O)C3(C(F)(F)F)CCN(CC(F)(F)F)CC3)C(=O)O)cccc12 [Compound 957]
31 |  |  | < 10 nM | 100 to 1000 nM | COc1ccc(CN2CCC(C(C)(C)C)CC2)c(OC)c1-c1cccc2c(C[C@H](NC(=O)c3c(C)cccc3F)C(=O)O)cccc12 [Compound 579]
32 |  |  | 100 to 1000 nM | > 1000 nM | COc1ccc2cccnc2c1-c1cccc2c(C[C@H](NC(=O)c3c(F)cccc3F)C(=O)O)cccc12 [Compound 501]
33 |  |  | < 10 nM | 100 to 1000 nM | COC(=O)[C@H](Cc1cccc2c(-c3nccc4cc(CCN(C)C)ccc34)cccc12)NC(=O)OC(C)(C)C [Compound 471]
34 | 10 to 100 nM | > 1000 nM |  |  | Cc1cccc(F)c1C(=O)N[C@@H](Cc1cccc2c(-c3c(C(F)(F)F)c4cc(CCN5CCC(F)(F)C5)ccc4n(C)c3=O)cccc12)C(=O)O [Compound 712]
35 |  |  | < 10 nM | 100 to 1000 nM | O=C(O)[C@H](Cc1cccc2c(-c3nccc4ccc(CCCN5CCCCC5)cc34)cccc12)NC(=O)C1(C(F)(F)F)CCN([C@H]2COCC2(F)F)CC1 [Compound 482]
36 | 10 to 100 nM | > 1000 nM |  |  | O=C(O)[C@H](Cc1cccc2c(-c3ncc(CN4CCC[C@H](F)C4)c4ccccc34)cccc12)NC(=O)C1(C(F)(F)F)CCN(CC(F)(F)F)CC1 [Compound 852]
37 | < 10 nM | > 1000 nM |  |  | COc1ccc(CN2CCC3(CCCCC3)CC2)c(OC)c1-c1cccc2c(C[C@H](NC(=O)C3(C(F)(F)F)CCN(CC(F)(F)F)CC3)C(=O)O)cccc12 [Compound 813]
38 | 10 to 100 nM | > 1000 nM |  |  | O=C(O)[C@H](Cc1cccc2c(-c3ccccc3OCCN3CCCCC3)cccc12)NC(=O)C1(C(F)(F)F)CCN(CC(F)(F)F)CC1 [Compound 749]
39 |  |  | < 10 nM | 100 to 1000 nM | COc1ccc(CN2CCCC(F)(F)CC2)c(OC)c1-c1cccc2c(C[C@H](NC(=O)c3c(C)cccc3F)C(=O)O)cccc12 [Compound 653]
40 | 10 to 100 nM | > 1000 nM |  |  | COc1ccc(CCN2CCCCC2)cc1-c1cccc2c(C[C@H](NC(=O)c3c(C)cccc3F)C(=O)O)cccc12 [Compound 1001]
41 | < 10 nM | 100 to 1000 nM |  |  | COc1ccc(CN2CCN(CC(C)C)CC2)c(OC)c1-c1cccc2c(C[C@H](NC(=O)C3(C(F)(F)F)CCN(CC(F)(F)F)CC3)C(=O)O)cccc12 [Compound 805]
42 | < 10 nM | 100 to 1000 nM |  |  | Cc1cccc(F)c1C(=O)N[C@@H](Cc1cccc2c(-c3c(C(F)(F)F)c4cc(CCN(C)C)ccc4n(C)c3=O)cccc12)C(=O)O [Compound 706]
43 |  |  | 10 to 100 nM | > 1000 nM | Cn1c(=O)c(-c2cccc3c(C[C@H](NC(=O)C4(C(F)(F)F)CCN([C@H]5CCC(F)(F)C5)CC4)C(=O)O)cccc23)c(C(F)(F)F)c2ccccc21 (single isomer, unassigned) [Compound 495]
44 |  |  | 10 to 100 nM | > 1000 nM | COc1cc(CN2CCCCC2)ccc1-c1cccc2c(C[C@H](NC(=O)c3c(C)cccc3F)C(=O)O)cccc12 [Compound 666]
